Numbering of substitutions follows the chain as printed. “Also recorded” adds a separate entry of the source.

What all share (assay type): cell-based
Test [1] has as its target T1, wild type UDPG receptor (P2Y14) (Homo sapiens, UniProt Q15391).
T1 construct: The entire UDPG receptor gene was mutagenized via error-prone mutagenesis; expressed in transfected cells; host or cells: Saccharomyces cerevisiae CY10560 (growth) / CY10981 with Cp1021 FUS1-LacZ (β-galactosidase)
T1 sequence (Q15391 1-338): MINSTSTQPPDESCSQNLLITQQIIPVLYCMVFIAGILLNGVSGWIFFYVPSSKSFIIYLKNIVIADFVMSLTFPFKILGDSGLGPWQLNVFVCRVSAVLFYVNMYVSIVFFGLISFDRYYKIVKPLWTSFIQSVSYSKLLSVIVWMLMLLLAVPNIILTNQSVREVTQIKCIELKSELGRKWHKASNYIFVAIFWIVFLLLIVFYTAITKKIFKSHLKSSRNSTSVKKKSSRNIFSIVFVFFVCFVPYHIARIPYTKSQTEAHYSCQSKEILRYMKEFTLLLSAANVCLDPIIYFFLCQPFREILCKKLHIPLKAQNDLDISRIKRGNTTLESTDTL
Put plainly: β-galactosidase reporter assay in yeast, wild type receptor. (Reporter assays use an easily measured gene product as a stand-in for the process of interest.)

Test [2] addresses T2, UDP-glucose receptor 2211 (Homo sapiens, UniProt Q15391, A193V/A252V/A98V/F243I/K54E).
T2 construct: The entire UDPG receptor gene was mutagenized via error-prone mutagenesis; expressed in transfected cells; host or cells: Saccharomyces cerevisiae CY10560 (growth) / CY10981 with Cp1021 FUS1-LacZ (β-galactosidase)
T2 sequence (Q15391 1-338 K54E/A98V/A193V/F243I/A252V): T1 sequence (Q15391 1-338) with K54E, A98V, A193V, F243I, A252V
Put plainly: β-galactosidase reporter assay in yeast, mutant 2211 receptor. The protocol:
(§1) Strains and plasmids. Mutagenesis and selection were performed in yeast strain […] can1-100 […] […] […] ura3-52). β-Galactosidase assays were performed using yeast strain CY10981 (PFUS1-HIS3 can1-100 […] […] […] ura3-52) carrying plasmid Cp1021 (PFUS1-LacZ 2 μm URA3).

Another test deals with T3, UDPG receptor mutant K-3 (Homo sapiens, UniProt Q15391, A193V/A252V/A98V/E278G/F243I/I251T/K54E/R253K).
T3 construct: The entire UDPG receptor gene was mutagenized via error-prone mutagenesis; expressed in transfected cells; host or cells: Saccharomyces cerevisiae CY10560 (growth) / CY10981 with Cp1021 FUS1-LacZ (β-galactosidase)
T3 sequence (Q15391 1-338 K54E/A98V/A193V/F243I/I251T/A252V/R253K/E278G): T1 sequence (Q15391 1-338) with K54E, A98V, A193V, F243I, I251T, A252V, R253K, E278G
The experiment in a line: β-galactosidase reporter assay in yeast, mutant K-3 receptor. As to the method: as §1

For another test, the target named is T4, K-3 mutant (Homo sapiens, UniProt Q15391, A193V/A252V/A98V/E278G/F243I/I251T/K54E/R253K).
T4 construct: The entire UDPG receptor gene was mutagenized via error-prone mutagenesis; expressed in transfected cells; host or cells: Saccharomyces cerevisiae CY10560 (growth) / CY10981 with Cp1021 FUS1-LacZ (β-galactosidase)
T4 sequence (Q15391 1-338 K54E/A98V/A193V/F243I/I251T/A252V/R253K/E278G): T1 sequence (Q15391 1-338) with K54E, A98V, A193V, F243I, I251T, A252V, R253K, E278G
The experiment in a line: Yeast growth assay, mutant K-3 receptor. To be noted: relative to parent H-20. The source says: Targeted mutagenesis and selection of functional receptor mutants. To generate targeted mutants, oligonucleotides with randomized sequences, corresponding to the codons to be mutagenized, were utilized to generate overlapping PCR products. The method and many applicable variations thereof are known in the art.
The HTVK mutant, designated H-20, was selected as the template for mutagenesis of three additional motifs, ‘AxxFY’ and ‘NMY’ in TM3, and ‘KExT’ in TM7.

For test [3], the target named is T5, UDPG receptor mutant H-20 (Homo sapiens, UniProt Q15391, A193V/A252V/A98V/F243I/I251T/K54E/R253K).
T5 construct: The entire UDPG receptor gene was mutagenized via error-prone mutagenesis; expressed in transfected cells; host or cells: Saccharomyces cerevisiae CY10560 (growth) / CY10981 with Cp1021 FUS1-LacZ (β-galactosidase)
T5 sequence (Q15391 1-338 K54E/A98V/A193V/F243I/I251T/A252V/R253K): T1 sequence (Q15391 1-338) with K54E, A98V, A193V, F243I, I251T, A252V, R253K
Put plainly: β-galactosidase reporter assay in yeast, mutant H-20 receptor. As to the method:
as §1

Regarding `O=c1ccn([C@@H]2O[C@H](COP(=O)(O)OP(=O)(O)O)[C@@H](O)[C@H]2O)c(=O)[nH]1` [UDP, uridine diphosphate], in test [1], the “agonist/antagonist character at wild type receptor” value is “primarily as an antagonist”. Further, the “agonist/antagonist character at 2211 receptor” value in test [2] is “weakly activated; also recorded: competitive inhibitor; also recorded: primarily as an antagonist”. Besides, the “Slope of the linear fit, Schild regression” value in test [2] (UDP antagonism of UDP-glucose agonist activity, FIG. 2 Panel B) was around 0.8. The “agonist/antagonist character at K-3 receptor” value on UDPG receptor mutant K-3 is recorded as “at least a partial agonist; also recorded: increasingly strong partial agonist”. Moreover, the “growth in response to ligand” value at K-3 mutant is “grew in the presence”. The “agonist/antagonist character at H-20 receptor” value in test [3] is reported as “increasingly strong partial agonist”.
